From ChEMBL document CHEMBL4190178 (Medchemcomm, 2016)
Activity calls are given as the source filed them. No cut-off for these calls is given here.

Key:
[1] = Apparent volume of distribution in Sprague-Dawley rat prostate at 10 mg/kg, po administered as single dose by LC-MS/MS analysis; type: ADME, organism-based, Prostate gland; details: in vivo
[2] = target: T1, Androgen receptor (Homo sapiens) (UniProt P10275); experiment: Antagonist activity at human androgen receptor expressed in African green monkey COS7 cells at 7.5 uM after 24 hrs by ARE-dual luciferase reporter gene assay; type: cell-based
T1 sequence (whole entry): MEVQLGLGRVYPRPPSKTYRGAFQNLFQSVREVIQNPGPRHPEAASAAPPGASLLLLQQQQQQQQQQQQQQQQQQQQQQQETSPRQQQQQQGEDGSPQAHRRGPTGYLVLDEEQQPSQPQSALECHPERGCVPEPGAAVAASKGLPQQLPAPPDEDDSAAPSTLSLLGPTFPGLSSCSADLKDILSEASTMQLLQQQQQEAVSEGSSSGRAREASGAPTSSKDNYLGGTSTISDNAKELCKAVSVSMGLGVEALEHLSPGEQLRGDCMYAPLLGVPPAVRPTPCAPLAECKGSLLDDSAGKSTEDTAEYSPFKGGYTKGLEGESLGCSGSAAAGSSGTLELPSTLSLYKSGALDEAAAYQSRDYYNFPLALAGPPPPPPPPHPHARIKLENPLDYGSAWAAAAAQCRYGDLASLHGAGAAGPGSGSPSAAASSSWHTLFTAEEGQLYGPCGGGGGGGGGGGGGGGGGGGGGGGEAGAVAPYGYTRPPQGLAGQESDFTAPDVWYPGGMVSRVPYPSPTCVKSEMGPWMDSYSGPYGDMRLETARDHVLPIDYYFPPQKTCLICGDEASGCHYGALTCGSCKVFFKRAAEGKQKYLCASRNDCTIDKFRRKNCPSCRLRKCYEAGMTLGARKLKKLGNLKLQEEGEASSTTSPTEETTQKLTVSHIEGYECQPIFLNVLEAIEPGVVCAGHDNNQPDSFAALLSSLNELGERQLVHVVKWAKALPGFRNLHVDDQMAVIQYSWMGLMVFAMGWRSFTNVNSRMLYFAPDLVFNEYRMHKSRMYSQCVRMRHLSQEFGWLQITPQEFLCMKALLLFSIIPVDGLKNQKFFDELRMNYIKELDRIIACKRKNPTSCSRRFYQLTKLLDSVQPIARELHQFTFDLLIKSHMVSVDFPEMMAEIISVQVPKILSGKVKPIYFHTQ

[3] = target: T2, Alpha-1A adrenergic receptor (Homo sapiens) (UniProt P35348); experiment: Antagonist activity at human alpha1A adrenergic receptor expressed in Chem1 cells assessed as decrease in epinephrine-induced calcium mobilization by measuring relative fluorescence unit at 10 uM by fluoforte dye based fluorescence assay relative to epinephrine; type: functional, cell-based
T2 sequence (whole entry): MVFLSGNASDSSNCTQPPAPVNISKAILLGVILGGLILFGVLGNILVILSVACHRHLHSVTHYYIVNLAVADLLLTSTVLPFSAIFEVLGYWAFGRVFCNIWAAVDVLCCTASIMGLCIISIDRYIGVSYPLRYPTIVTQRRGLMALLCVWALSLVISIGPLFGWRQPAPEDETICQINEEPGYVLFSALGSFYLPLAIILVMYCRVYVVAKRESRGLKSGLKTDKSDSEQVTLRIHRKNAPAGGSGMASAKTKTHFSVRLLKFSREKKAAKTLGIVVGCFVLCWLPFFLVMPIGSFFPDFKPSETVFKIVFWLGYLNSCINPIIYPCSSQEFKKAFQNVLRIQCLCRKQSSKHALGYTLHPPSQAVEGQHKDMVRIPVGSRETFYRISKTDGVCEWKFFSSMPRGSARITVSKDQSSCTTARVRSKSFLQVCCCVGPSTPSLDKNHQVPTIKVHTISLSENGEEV

[4] = AUClast in Sprague-Dawley rat prostate at 10 mg/kg, po administered as single dose by LC-MS/MS analysis; type: ADME, organism-based, Prostate gland; details: in vivo
[5] = Apparent clearance in Sprague-Dawley rat serum at 10 mg/kg, po administered as single dose by LC-MS/MS analysis; type: ADME, organism-based
Rattus norvegicus [6] = experiment: Toxicity in benign prostatic hyperplasia Sprague-Dawley rat model assessed as effect on epididymis weight at 10 mg/kg, po qd co-administered with citral for 21 days starting post 8 days of citral alone treatment; type: organism-based; details: in vivo
Rattus norvegicus [7] = experiment: Anti-androgenic activity in benign prostatic hyperplasia Sprague-Dawley rat model assessed as reduction in citral-induced prostate weight at 10 mg/kg, po qd co-administered with citral for 21 days starting post 8 days of citral alone treatment; type: functional; set-up: scale not given: the % may be the effect or the level left
[8] = Apparent volume of distribution in Sprague-Dawley rat hypothalamus at 10 mg/kg, po administered as single dose by LC-MS/MS analysis; type: ADME, organism-based; details: in vivo
[9] = Cmax in Sprague-Dawley rat hypothalamus at 10 mg/kg, po administered as single dose by LC-MS/MS analysis; type: ADME, organism-based; set-up: dose 10 mg/kg, route oral
Rattus norvegicus [10] = experiment: Toxicity in benign prostatic hyperplasia Sprague-Dawley rat model assessed as effect on seminal vesicle weight at 10 mg/kg, po qd co-administered with citral for 21 days starting post 8 days of citral alone treatment; type: organism-based; details: in vivo
Rattus norvegicus [11] = experiment: Anti-androgenic activity in citral-induced benign prostatic hyperplasia Sprague-Dawley rat model assessed as reduction in tissue differentiation into stroma at 10 mg/kg, po qd co-administered with citral for 21 days starting post 8 days of citral alone treatment by hematoxyline and eosin staining based light microscopic analysis; type: functional, organism-based
[12] = Ratio of AUClast in Sprague-Dawley rat hypothalamus to serum at 10 mg/kg, po administered as single dose by LC-MS/MS analysis; type: ADME, organism-based; details: read-out: Ratio AUC
[13] = Cmax in Sprague-Dawley rat serum at 10 mg/kg, po administered as single dose by LC-MS/MS analysis; type: ADME, organism-based; set-up: dose 10 mg/kg, route oral
[14] = AUClast in Sprague-Dawley rat serum at 10 mg/kg, po administered as single dose by LC-MS/MS analysis; type: ADME, organism-based; set-up: dose 10 mg/kg, route oral, time 0 - last
DU-145 = experiment: Antiproliferative activity against human DU145 cells assessed as decrease in cell viability after 24 hrs by MTT assay; type: functional, cell-based; details: DU-145, 24 h
LNCaP [15] = experiment: Antiproliferative activity against human LNCAP cells assessed as decrease in cell viability after 24 hrs by MTT assay; type: functional, cell-based
[16] = Tmax in Sprague-Dawley rat serum at 10 mg/kg, po administered as single dose by LC-MS/MS analysis; type: ADME, organism-based
[17] = Apparent clearance in Sprague-Dawley rat prostate at 10 mg/kg, po administered as single dose by LC-MS/MS analysis; type: ADME, organism-based, Prostate gland; details: in vivo
Rattus norvegicus [18] = experiment: Anti-androgenic activity in citral-induced benign prostatic hyperplasia Sprague-Dawley rat model assessed as reduction in tissue differentiation into acinar compartments at 10 mg/kg, po qd co-administered with citral for 21 days starting post 8 days of citral alone treatment by hematoxyline and eosin staining based light microscopic analysis; type: functional, organism-based
Rattus norvegicus [19] = experiment: Toxicity in benign prostatic hyperplasia Sprague-Dawley rat model assessed as effect on testis weight at 10 mg/kg, po qd co-administered with citral for 21 days starting post 8 days of citral alone treatment; type: organism-based; details: in vivo
[20] = AUClast in Sprague-Dawley rat hypothalamus at 10 mg/kg, po administered as single dose by LC-MS/MS analysis; type: ADME, organism-based; details: in vivo
[21] = Tmax in Sprague-Dawley rat prostate at 10 mg/kg, po administered as single dose by LC-MS/MS analysis; type: ADME, organism-based, Prostate gland
[22] = Apparent clearance in Sprague-Dawley rat hypothalamus at 10 mg/kg, po administered as single dose by LC-MS/MS analysis; type: ADME, organism-based; details: in vivo
[23] = Cmax in Sprague-Dawley rat prostate at 10 mg/kg, po administered as single dose by LC-MS/MS analysis; type: ADME, organism-based, Prostate gland; set-up: dose 10 mg/kg, route oral
[24] = Tmax in Sprague-Dawley rat hypothalamus at 10 mg/kg, po administered as single dose by LC-MS/MS analysis; type: ADME, organism-based
LNCaP [25] = experiment: Cytotoxicity against human LNCAP cells assessed as reduction in cell viability after 24 hrs by MTT assay; type: functional, cell-based
Rattus norvegicus [26] = experiment: Anti-androgenic activity in citral-induced benign prostatic hyperplasia Sprague-Dawley rat model assessed as reduction in stromal component at 10 mg/kg, po qd co-administered with citral for 21 days starting post 8 days of citral alone treatment by hematoxyline and eosin staining based light microscopic analysis; type: functional, organism-based
[27] = target: T1, Androgen receptor (Homo sapiens); experiment: Antagonist activity at androgen receptor in human LNCAP cells assessed as decrease in testosterone-induced PSA expression levels at 10 uM after 24 hrs by Western blot analysis; type: cell-based
[28] = Ratio of AUClast in Sprague-Dawley rat prostate to serum at 10 mg/kg, po administered as single dose by LC-MS/MS analysis; type: ADME, organism-based; details: read-out: Ratio AUC
PC-3 = experiment: Antiproliferative activity against human PC3 cells assessed as decrease in cell viability after 24 hrs by MTT assay; type: functional, cell-based; details: PC-3, 24 h
[29] = Apparent volume of distribution in Sprague-Dawley rat serum at 10 mg/kg, po administered as single dose by LC-MS/MS analysis; type: ADME, organism-based

Which Vd/F [1] does the source give for `O=C(CN1CCN(c2ccc([N+](=O)[O-])cc2)CC1)N1CCN(c2ccc([N+](=O)[O-])cc2)CC1` here?
Its Vd/F is 2311.9 g/kg.

And the Activity [2]?
The Activity was “Active”.

And the fold change (FC) [3]?
Its fold change (FC) is 1.6.

What about the AUClast [4] of the same molecule?
The AUClast was 37.3 µg·h/g.

What about the CL/F [5] of the same molecule?
The CL/F was 6.67 mL/min/kg.

And the Activity (Rattus norvegicus [6])?
The Activity was “Non-Toxic”.

What about the Activity (Rattus norvegicus [7]) of the same molecule?
Its Activity is 46.2%.

What about the Vd/F [8] of the same molecule?
The Vd/F was 3313.7 g/kg.

What about the Cmax [9] of the same molecule?
Its Cmax is 1200 ng/g.

What about the Activity (Rattus norvegicus [10]) of the same molecule?
Its Activity is “Non-Toxic”.

And the Activity (Rattus norvegicus [11])?
The Activity was “Active”.

What about the Kp [12] of the same molecule?
Its Kp is 1.1.

What about the Cmax [13] of the same molecule?
The Cmax was 1100 ng/mL.

And the AUC(0-t) [14]?
The AUC(0-t) was 24100 ng·h/mL.

What about the EC50 (DU-145) of the same molecule?
Its EC50 is over 80 µM.

And the EC50 (LNCaP [15])?
Its EC50 is 11.2 µM.

What about the Tmax [16] of the same molecule?
The Tmax was 10 h.

And the CL/F [17]?
Its CL/F is 268.2 g/h/kg.

And the Activity (Rattus norvegicus [18])?
The Activity was “Active”.

And the Activity (Rattus norvegicus [19])?
Its Activity is “Non-Toxic”.

And the AUClast [20]?
The AUClast was 26.1 µg·h/g.

And the Tmax [21]?
Its Tmax is 10 h.

And the CL/F [22]?
Its CL/F is 383.2 g/h/kg.

What about the Cmax [23] of the same molecule?
Its Cmax is 2400 ng/g.

What about the Tmax [24] of the same molecule?
The Tmax was 10 h.

What about the EC50 (LNCaP [25]) of the same molecule?
Its EC50 is 11.2 µM.

What about the Activity (Rattus norvegicus [26]) of the same molecule?
The Activity was “Active”.

And the Activity [27]?
The Activity was “Active”.

What about the Kp [28] of the same molecule?
Its Kp is 1.5.

And the EC50 (PC-3)?
Its EC50 is over 80 µM.

And the Vd/F [29]?
Its Vd/F is 4.2 L/kg.
